Measurements published in the NIST ThermoML archive (doi:10.1021/acs.jced.8b00854).

Tests used:
[1] = xn = mol fraction of the nth substance listed; settings: 100 kPa, Liquid, Vibrating tube method
[2] = refractive index (Na D-line) (dimensionless); xn = mol fraction of the nth substance listed; settings: 100 kPa, Liquid, Standard Abbe refractometry

CCCCCCCC[n+]1ccn(C)c1.F[B-](F)(F)F [1-methyl-3-octylimidazolium tetrafluoroborate] + O
Settings	mass density, [1] [kg/m3]	refractive index, [2]
293.15 K, x1 = 0.3005	1084.34	1.4165
293.15 K, x1 = 0.4006	1089.21	1.4205
293.15 K, x1 = 0.5002	1094.12	1.424
293.15 K, x1 = 0.6001	1098.16	1.4265
293.15 K, x1 = 0.7006	1100.51	1.4285
293.15 K, x1 = 0.8004	1103.28	1.4305
293.15 K, x1 = 0.9015	1104.81	1.4315
303.15 K, x1 = 0.3005	1076.96	1.414
303.15 K, x1 = 0.4006	1082.09	1.419
303.15 K, x1 = 0.5002	1087.07	1.422
303.15 K, x1 = 0.6001	1091.18	1.425
303.15 K, x1 = 0.7006	1093.59	1.4265
303.15 K, x1 = 0.8004	1096.42	1.428
303.15 K, x1 = 0.9015	1098.01	1.4295
313.15 K, x1 = 0.3005	1069.66	1.413
313.15 K, x1 = 0.4006	1074.86	1.4165
313.15 K, x1 = 0.5002	1080	1.4205
313.15 K, x1 = 0.6001	1084.21	1.423
313.15 K, x1 = 0.7006	1086.68	1.4245
313.15 K, x1 = 0.8004	1089.58	1.4265
313.15 K, x1 = 0.9015	1091.22	1.427
323.15 K, x1 = 0.3005	1061.92	1.4125
323.15 K, x1 = 0.4006	1067.52	1.416
323.15 K, x1 = 0.5002	1072.9	1.419
323.15 K, x1 = 0.6001	1077.21	1.422
323.15 K, x1 = 0.7006	1079.77	1.423
323.15 K, x1 = 0.8004	1082.8	1.424
323.15 K, x1 = 0.9015	1084.48	1.4255
333.15 K, x1 = 0.3005	–	1.412
333.15 K, x1 = 0.4006	–	1.415
333.15 K, x1 = 0.5002	–	1.4185
333.15 K, x1 = 0.6001	–	1.4195
333.15 K, x1 = 0.7006	–	1.421
333.15 K, x1 = 0.8004	–	1.4225
333.15 K, x1 = 0.9015	–	1.4235
343.15 K, x1 = 0.3005	1041.36	1.412
343.15 K, x1 = 0.4006	1049.84	1.414
343.15 K, x1 = 0.5002	1057.37	1.417
343.15 K, x1 = 0.6001	1062.23	1.419
343.15 K, x1 = 0.7006	1065.07	1.419
343.15 K, x1 = 0.8004	1069.34	1.4205
343.15 K, x1 = 0.9015	1070.96	1.4215
